According to the METLIN SMRT retention time set (Domingo-Almenara et al. 2019):

Experiment: gradient 5% acetonitrile 3 min, to 50% in 2 min, to 85% in 15 min, held 3 min, 100 µL/min
Details: column: Zorbax Extend-C18 2.1 x 50 mm; eluents: water / acetonitrile, 0.1% formic acid
Summary of the method: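 Standards, all pure, were combined into mixtures of ~100 molecules and run at 100 μL/min on a Zorbax Extend-C18 column (2.1 × 50 mm, 1.8 μm) with water and acetonitrile, each containing 0.1% formic acid. A coupled quadrupole time-of-flight mass spectrometer operated in positive and negative ionization mode. Retention time values come from computationally picked adduct peaks, each inspected manually.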

| SMILES | RP-LC retention time [s] |
| --- | --- |
| CCCN1CCN(C(=O)C2=Cc3cc(-c4ccccc4)ccc3OC2)CC1 | 714 |
| O=C(CCSc1ccc(F)cc1)Nc1ccccc1-c1nc2ccccc2[nH]1 | 939 |
| CCc1ccc(N2CC(c3nc4ccccc4n3CC(=O)N3CCCC3)CC2=O)cc1 (stereo unspecified) | 739 |
| CCCNc1cc(N2CCC(CCC(=O)NCc3ccc(F)cc3F)CC2)ncn1 | 694 |
| Cc1cc(C)c2c(-n3cccc3)nn(CC(=O)NCC(C)c3ccccc3)c2n1 (stereo unspecified) | 1040 |
| Cn1ccc2cc(S(=O)(=O)N3CCCC(C(=O)NCCN4CCCCC4)C3)ccc21 (stereo unspecified) | 654 |
| CC(C)c1ccc(-n2nc(N3CCN(C(=O)C4CC4)CC3)ccc2=O)cc1 | 810 |
| O=C(Nc1ccc(SCc2ccccc2F)nn1)c1cccs1 | 942 |
| O=C(CN1CC=C(c2cnn(-c3ccc(F)cc3)c2)CC1)N1CCCCC1 | 661 |
| CCn1nccc1C(=O)N1CCCC1c1ccc(C)cc1 (stereo unspecified) | 890 |
| CC1CCN(S(=O)(=O)c2ccc(-c3nnc(C(=O)N4CCOCC4)o3)cc2)CC1 | 797 |
| CCc1cccc(NC(=O)N2CCc3c(c(-c4nc(C5CC5)no4)nn3C)C2)c1 | 928 |
| Cc1cnc(C(=O)N(C)C2CCc3nn(CC4CC4)c(=O)n3CC2)cn1 (stereo unspecified) | 618 |
| COCCO[C@H]1C(=O)N(C2CCN(S(=O)(=O)c3cccnc3)CC2)[C@H]1c1ccncc1 | 583 |
| COc1ccc(NC(=O)c2sc(-c3cn(C(C)C)c4ncccc34)nc2C)c(OC)c1 | 1030 |
| CN1CCC(N2CCN(C(=O)c3cc(-c4ccc(F)cc4)cn3C)CC2)CC1 | 576 |
| CN1c2ccccc2C(=O)NC12CCN(C(=O)NCc1ccccc1)CC2 | 705 |
| COc1ccc(C(=O)Nc2cc(OC)nc(OC)n2)cc1 | 798 |
| Cc1cc(N2CCN(C)CC2)nc2ccc(NC(=O)NCc3ccco3)cc12 | 564 |
| FC(F)Sc1ccc(-c2cn3cc(Cl)ccc3n2)cc1 | 841 |
| CCN1CCCn2nc(C3CCN(C(=O)c4n[nH]c5ccccc45)CC3)cc2C1=O | 629 |
| COc1ccc(NC(=O)Cn2nc(C(=O)N3CCOCC3)c3ccccc32)cc1 | 712 |

| SMILES | RP-LC retention time [s] |
| --- | --- |
| CCCc1nc(NCc2ccc3c(c2)OCO3)ncc1C(=O)O | 791 |
| O=C(NCc1csc(C2CCN(C(=O)c3c(F)cccc3F)CC2)n1)C1CCC1 | 740 |
| CCN1CCN(c2cc(C)c3cc(NC(=S)NCc4ccc(F)cc4Cl)ccc3n2)CC1 | 657 |
| Cc1ccn2c(Nc3ccccc3C)c(-c3ccccc3O)nc2c1 | 701 |
| Cc1ccc(NC(=O)CN2C(=O)CSC(C)C2=O)cc1Cl (stereo unspecified) | 819 |
| Cc1nc2cc(-c3noc(-c4ccc5c(c4)OCO5)n3)ccc2n(C)c1=O | 920 |
| Cc1cc(N(C)C)n2nc(CN3CCN(c4cccc(C)c4C)CC3)nc2n1 | 655 |
| O=C(c1ccccn1)N1CCCn2cc(-c3ccccc3)nc21 | 620 |
| COCCn1cc(C(=O)Nc2cccc(C(C)=O)c2)c2nn(-c3ccccc3)c(=O)c-2c1 | 812 |
| CC(NC(=O)C1CCN(c2cncnc2N2CCCC2)CC1)c1ccccc1 (stereo unspecified) | 660 |
| CCCS(=O)(=O)N1CCC2(CC1)CN(c1cccc(F)c1)C2c1ccccc1 (stereo unspecified) | 1290 |
| CS(=O)(=O)N1C[C@@H](COc2ccncc2)[C@H](c2ccccn2)C1 | 542 |
| CSc1ccc(-c2nc3cnccn3c2Nc2cccc(C(=O)NCc3ccco3)c2)cc1 | 793 |
| CCCNS(=O)(=O)c1cc(-c2nc(C)cs2)n(CC(=O)N2CCCCC2)c1 | 869 |
| COc1ccc(-c2nc(-c3ccc(S(=O)(=O)N4CCCC4)cc3)no2)cc1 | 1140 |
| Cc1cc2nn(CC(=O)Nc3ccc(F)c(F)c3)c(=O)n2c(Nc2ccc(F)cc2)n1 | 1020 |
| Cc1csc(-c2cc(S(=O)(=O)Nc3ccc(Cl)cc3F)cn2CC(=O)N2CCCC2)n1 | 944 |
| CCn1nc(C)c(S(=O)(=O)N2CCN(C(=O)C3(c4ccc(OC)cc4)CC3)CC2)c1C | 797 |
| Cc1ccc2c(c1)C(=O)NC1(CCN(C(=O)NCc3ccc(F)cc3)CC1)N2C | 761 |
| CCCC(=O)O[C@]1(C(=O)CO)CC[C@H]2[C@@H]3CCC4=CC(=O)CC[C@]4(C)[C@H]3[C@@H](O)C[C@@]21C | 1010 |
| O=C(CCn1nnc2cc(-c3noc(COc4ccc(Cl)cc4)n3)ccc21)N1CCOCC1 | 866 |
| O=C(Nc1ccccc1F)N1CCC(N2CCN(Cc3ccc(F)cc3)C2=O)CC1 | 811 |

| SMILES | RP-LC retention time [s] |
| --- | --- |
| O=C(Nc1ccc(Cl)cc1)C1(c2cccs2)CCOCC1 | 976 |
| Cc1ccccc1CNc1nc2ccncc2n(C(C)C)c1=O | 745 |
| Cc1cc(C)cc(NC(=O)N2CCC(n3cnc4ccccc4c3=O)CC2)c1 | 809 |
| COc1ccccc1CNS(=O)(=O)c1ccc(-c2c(C)noc2C)cc1 | 922 |
| CCN1CCCCc2cc(C(=O)NCCC3CCN(C(C)C)CC3)sc21 | 680 |
| N#Cc1cccc(NC(=O)COc2ccc(-c3nnc4n3CCCC4)cc2)c1 | 653 |
| CCC(=O)Nc1ccc2c(c1)nc(CN1CCCC1)n2C(C)C | 581 |
| CCc1cccc(NS(=O)(=O)c2cn(CC)c3ncccc23)c1 | 937 |
| COCCCN(Cc1ccco1)c1nc(-c2ccc(OC)cc2)nc2ccccc12 | 823 |
| CC(C(=O)N1CCCc2ccccc21)n1cnc2nc3c(cc2c1=O)CCCC3 (stereo unspecified) | 818 |
| Cc1ccc(-c2nnc(Cc3nc(-c4cccnc4)no3)o2)cc1C | 845 |
| O=C(c1ccc(-c2cncnc2)nc1)N1CCN(c2ccc(Cl)cc2)CC1 | 796 |
| O=C(C(=O)N1CCN(c2cccc(Cl)c2)CC1)c1c[nH]c2ccccc12 | 710 |
| Cc1[nH]c2ccccc2c1CC(=O)NCCc1c[nH]c2ccccc12 | 826 |
| CC(=O)Nc1cc(C(=O)NCCC2=CCCCC2)c2ccc(C)nc2c1 | 652 |
| CCc1ccc2c(c1)-c1ccccc1S(=O)(=O)N2CC(=O)N1CCN(C)CC1 | 662 |
| COC(=O)c1cnc(N2CCN(c3cccc(Cl)c3)CC2)c2ccccc12 | 1350 |
| Cc1noc(-c2cc(=O)n(CC(=O)Nc3cccc(Cl)c3C)c3ccccc23)n1 | 923 |
| CCCc1cc(N2CCN(C(=O)c3ccsc3)CC2)nc2nnc(CC)n12 | 624 |
| CCCn1ccc2sc(C)c(C(=O)N3CCN(C4CCCCC4)CC3)c2c1=O | 606 |
| O=C(NCC1CCN(C(=O)Oc2ccccc2)CC1)Nc1ccccc1Cl | 881 |
| O=C1C2N=NN(Cc3nc(-c4cccc(Cl)c4)no3)C2C(=O)N1c1ccc2c(c1)CCC2 (stereo unspecified) | 1130 |
